# Key:
# [1] = Pharmacokinetic test in male SD rats; assay type: in vivo; conditions: rat, plasma; for clearance: intravenous injection, 2 mg/kg; for AUC / Cmax: po, gavage, 10 mg/kg
# Description: Method: 42 male SD rats, weight: 150-300 g. Divided into 7 groups randomly, with 6 rats in each group. Among the 6 rats in each group, three of them were administrated a single intravenous injection of […] of the example compound, the other three were given intragastric administration of […] of the example compound, blood was collected from the orbital venous plexus at designated time points, plasma was separated, and stored in a −80° C. refrigerator for later use.
# The protein of the resultant plasma was precipitated by acetonitrile, the supernatant was extracted, and mixed with water at the ratio of 1:1, took 10 μL of which for LC-MS/MS detection, and calculated the average was calculated.
# human tumor cells MCF-7 = assay: Cell proliferation assay (CellTiter Glo), MCF-7; assay type: cell-based; conditions: MCF7, MCF-7 cells incubated for 120 h, read-out: IC50(μM) of compound on MCF cell
# Description: (§1) Method: The anti-proliferative effects on human tumor cells MCF-7 and HGC27 of certain compounds of the present invention were evaluated by CellTiter Glo assay.
# (§2) Detection method: MCF-7 cells were suspended in DMEM culture medium, the cell concentration of which was adjusted to 25000 cells/mL; HGC27 cells were suspended in RPMI-1640 culture medium, the cell concentration of which was adjusted to 5000 cells/mL. 100 μL of cell suspension was dispensed to a 96-well assay plate and placed in a CO2 incubator overnight. The tested compounds were dissolved in DMSO, and 3-fold derail dilution was performed to obtain 10-point concentrations. the 10-point concentrations of the tested compounds or or negative control was transferred to the well containing 100 μL of culture medium respectively, incubated at 37° C., 5% CO2, the HGC27 cells were incubated for 96 h, MCF-7 cells were incubated for 120 h. Then 100 μL of CellTiter-Glo agent was added to the above-mentioned 96-well assay plate, incubated at room temperature for 10 minutes to allow stable luminescence signal. VICTOR™ X5 instrument was used to record RLU (relative luminescence unit), and then calculate the IC50 values were calculated.
# (§3) Compound inhibition rate(% inh)=100% −(tested compound RLU-blank control RLU)/(negative control RLU-blank control RLU)*100%
# (§4) Blank control: blank culture medium, with no compound or cell;
# (§5) The IC50 (half inhibitory concentration) of the compound was obtained using the following nonlinear fitting formula:
# (§6) Y=minimum inhibition rate+(max inhibition rate-minimum inhibition rate)/(1+10^((Log IC50−X)*slope)); wherein, X: the log value of the concentration of the tested compound; Y: the inhibition rate of the tested compound(% inh).
# human tumor cells HGC27 = assay: Cell proliferation assay (CellTiter Glo), HGC27; assay type: cell-based; conditions: HGC-27, HGC27 cells incubated for 96 h, read-out: IC50(μM) of ompound on HGC-27cell
# Description: as §1, §2, §3, §4, §5, §6
# PI3Kα = PI3Kα (Homo sapiens, UniProt P42336); assay: Kinase experiment (ADP-Glo, luminescence), PI3Kα; assay type: biochemical; conditions: final concentration of ATP 10 μM; read-out: IC50 of compound to PI3K (nM) α
# Description: PI3Kα, PI3Kβ, PI3Kγ kinases undergo enzymatic reactions with their substrates ATP and PIP2:3PS, the amount of the product detected by ADP-Glo agent and luminescence method were used to reflect the enzymatic activities of PI3Kα, PI3Kβ, PI3Kγ (the final concentration of ATP is 10 μM). The above methods were used to test the inhibitory activity of certain compound of the present invention on PI3Kα, PI3Kβ and PI3Kγ kinase.
# Agent: Basic kinase buffer (pH 7.5); PI3Kα, PI3Kβ, PI3Kγ kinase solutions; PIP2:3PS and ATP solutions; ADP-Glo kit (containing 10 mM MgCl2).
# Wherein, the buffer composition: 50 mM Hepes (pH 7.2-7.5), 3 mM MgCl2, 1 mM EGTA, 0.03% CHAPS, 100 mM NaCl, 2 mM DTT; • Compound preparation: The tested compound was diluted to a specific concentration with 100% DMSO. • Process: 1) PI3Kα, PI3Kβ, or PI3Kγ protein solution were dispensed to a 384-well assay plate (6008280, PerkinElmer), and centrifuged at 1000 rpm for 1 minute. • 2) Tested compound, negative control DMSO or positive control BYL719 was dispensed to the above-mentioned 384-well assay plate with the kinase, centrifuged at 1000 rpm for 1 min, and incubated at 25° C. for 15 mins. • 3) PIP2:3PS&ATP solution was added to the above-mentioned 384-well assay plate, centrifuged at 1000 rpm for 1 min, incubated at 25° C. for 60 mins. • 4) 5 μL of ADP-Glo agent (10 mM MgCl2 contained) was transferred to the 384-well assay plate, centrifuged at 1000 rpm for 1 min, incubated at 25° C. for 40 mins. • 5) 10 μL of Detection agent was transferred to the 384-well assay plate, centrifuged at 1000 rpm for 1 min, incubated at 25° C. for 40 mins. • 6) RLU (Relative luminescence unit) value was measured by Envision multifunctional plate reader. The RLU value was used to characterize the degree of reaction between the enzyme and the substrate, and calculate the IC50 value. • 7) Data analysis:
# Compound inhibition rate(% inh)=(negative control RLU-tested compound RLU)/(negative control RLU-positive control RLU)*100%
# as §5
# Y=minimum inhibition rate+(max inhibition rate-minimum inhibition rate)/(1+10^((Log IC50−X)*slope)); wherein, X is the log value of the concentration of the tested compound, Y is the inhibition rate of tested compound(% inh).
# PI3Kα, sequence (P42336 whole entry): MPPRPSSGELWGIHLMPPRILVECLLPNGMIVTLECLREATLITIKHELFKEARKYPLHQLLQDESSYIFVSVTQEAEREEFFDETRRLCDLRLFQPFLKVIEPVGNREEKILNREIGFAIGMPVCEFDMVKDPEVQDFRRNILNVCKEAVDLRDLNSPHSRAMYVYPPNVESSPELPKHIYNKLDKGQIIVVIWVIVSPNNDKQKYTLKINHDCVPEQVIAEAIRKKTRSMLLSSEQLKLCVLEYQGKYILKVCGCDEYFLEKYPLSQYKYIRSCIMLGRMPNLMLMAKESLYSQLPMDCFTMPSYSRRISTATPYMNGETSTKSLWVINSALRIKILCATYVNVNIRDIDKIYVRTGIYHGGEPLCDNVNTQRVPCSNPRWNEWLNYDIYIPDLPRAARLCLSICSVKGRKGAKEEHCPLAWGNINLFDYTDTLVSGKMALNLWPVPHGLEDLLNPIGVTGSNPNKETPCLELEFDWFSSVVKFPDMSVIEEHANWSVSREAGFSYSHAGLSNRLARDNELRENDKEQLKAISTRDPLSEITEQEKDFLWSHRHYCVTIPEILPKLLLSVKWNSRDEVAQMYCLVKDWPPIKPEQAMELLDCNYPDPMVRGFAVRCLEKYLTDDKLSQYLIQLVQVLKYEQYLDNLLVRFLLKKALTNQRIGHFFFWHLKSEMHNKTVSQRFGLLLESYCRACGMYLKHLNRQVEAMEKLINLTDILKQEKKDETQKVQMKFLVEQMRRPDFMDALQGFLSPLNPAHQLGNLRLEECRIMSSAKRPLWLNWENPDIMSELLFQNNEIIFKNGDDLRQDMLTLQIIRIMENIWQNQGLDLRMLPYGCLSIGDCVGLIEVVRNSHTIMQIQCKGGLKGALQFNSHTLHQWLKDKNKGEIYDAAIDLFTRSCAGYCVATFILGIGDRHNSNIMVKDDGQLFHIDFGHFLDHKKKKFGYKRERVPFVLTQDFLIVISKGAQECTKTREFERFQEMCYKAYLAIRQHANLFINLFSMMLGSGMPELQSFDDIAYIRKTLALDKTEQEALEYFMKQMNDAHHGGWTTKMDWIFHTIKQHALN
# PI3Kα, sequence (P27986 whole entry partner): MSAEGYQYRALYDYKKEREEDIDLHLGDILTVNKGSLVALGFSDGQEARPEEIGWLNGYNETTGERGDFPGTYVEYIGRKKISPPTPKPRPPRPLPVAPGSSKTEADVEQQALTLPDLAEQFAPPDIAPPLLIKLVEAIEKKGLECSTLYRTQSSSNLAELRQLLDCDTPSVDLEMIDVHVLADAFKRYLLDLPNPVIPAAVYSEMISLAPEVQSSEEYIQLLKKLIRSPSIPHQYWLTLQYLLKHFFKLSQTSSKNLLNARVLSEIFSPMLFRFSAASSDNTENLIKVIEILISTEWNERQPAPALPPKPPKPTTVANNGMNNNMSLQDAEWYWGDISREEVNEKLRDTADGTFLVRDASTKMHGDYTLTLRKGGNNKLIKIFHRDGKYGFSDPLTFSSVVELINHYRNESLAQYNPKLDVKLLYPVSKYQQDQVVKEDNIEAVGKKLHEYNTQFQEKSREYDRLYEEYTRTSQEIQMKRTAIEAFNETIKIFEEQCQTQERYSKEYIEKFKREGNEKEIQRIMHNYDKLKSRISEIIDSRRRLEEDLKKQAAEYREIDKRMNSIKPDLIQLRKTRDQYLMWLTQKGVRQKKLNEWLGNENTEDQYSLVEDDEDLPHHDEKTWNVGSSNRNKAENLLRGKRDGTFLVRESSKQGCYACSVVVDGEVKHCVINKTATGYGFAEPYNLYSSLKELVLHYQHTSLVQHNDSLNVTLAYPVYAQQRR
Structure (SMILES),clearance [1] [mL/min/kg],AUC [1] [ng·h/mL],Cmax [1] [ng/mL],IC50 (human tumor cells MCF-7) [µM],IC50 (human tumor cells HGC27) [µM],IC50 (PI3Kα) [nM]
"C[C@@H]1COC(=O)N1c1cn2c(n1)-c1ccc(N3CCC[C@H]3C(N)=O)cc1OCC2 [Control compound 1, (2S)-1-(2-((4R)-4-methyl-2-oxooxazolidin-3-yl)-5,6-dihydrobenzo[f]imidazo[1,2-d] [1,4]oxazepin-9-yl)pyrrolidine-2-carboxamide, reference compound]",16.6,7880,1960,0.444,1.58,–
"NC(=O)[C@@H]1CCCN1c1ccc2c(c1)OCCn1cc(N3C(=O)CC[C@@H]3CO)nc1-2 [Control compound 2, (2S)-1-(2-((2R)-2-(hydroxymethyl)-5-oxopyrrolidine-1-yl)-5,6-dihydrobenzo[f]imidazo[1,2-d][1,4]oxazepin-9-yl)pyrrolidine-2-carboxamide, reference compound]",–,–,–,0.549,–,–
"CC(C)(c1cc(-c2cn3c(n2)-c2ccc(N4CCC[C@H]4C(N)=O)cc2OCC3)ccn1)C(F)(F)F [Control compound 3, (2S)-1-(2-(2-(1,1,1-trifluoro-2-methylpropan-2-yl)pyridn-4-yl)-5,6-dihydrobenzo[f]imidazo[1,2-d][1,4]oxazepin-9-yl)pyrrolidine-2-carboxamide, reference compound]",–,–,–,0.519,2.07,–
"CC(C)C1C(=O)N(CC(F)(F)F)C(=O)N1c1cn2c(n1)-c1ccc(N3CCC[C@H]3C(N)=O)cc1OCC2 (stereo partly drawn) [Example 3, (2S)-1-(2-(5-isopropyl-2,4-dioxo-3-(2,2,2-trifluoroethyl)imidazolidine-1-yl)-5,6-dihydrobenzo[f]imdazo[1,2-d] [1,4]oxazepin-9-yl)pyrrolidine-2-carboxamide]",–,–,–,–,–,< 5
"CN1C(=O)C(C2CC2)N(c2cn3c(n2)-c2ccc(N4CCC[C@H]4C(N)=O)cc2OCC3)C1=O (stereo partly drawn) [Example 5, (2S)-1-(2-(5-cyclopropyl-3-methyl-2,4-dioxoimidazolidin-1-yl)-5,6-dihydrobenzo[f]imidazo [1,2-d] [1,4]oxazepin-9-yl) pyrrolidine-2-carboxamide]",–,–,–,0.373,4.07,5 to 20
"CC(C)C1C(=O)N(C2CCC2)C(=O)N1c1cn2c(n1)-c1ccc(N3CCC[C@H]3C(N)=O)cc1OCC2 (stereo partly drawn) [Example 6, (2S)-1-(2-(3-cyclobutyl-5-isopropyl-2,4-dioxoimidazolidin-1-yl)-5,6-dihydrobenzo[f]imidazo [1,2-d] [1,4]oxazepin-9-yl)pyrrolidine-2-carboxamide]",–,–,–,–,–,5 to 20

# Next, values leading:
clearance [1] [mL/min/kg],AUC [1] [ng·h/mL],Cmax [1] [ng/mL],IC50 (human tumor cells MCF-7) [µM],IC50 (human tumor cells HGC27) [µM],IC50 (PI3Kα) [nM],Structure (SMILES)
–,–,–,–,–,5 to 20,"CCN1C(=O)C(C(C)C)N(c2cn3c(n2)-c2ccc(N4CCC[C@H]4C(N)=O)cc2OCC3)C1=O (stereo partly drawn) [Example 7, (2S)-1-(2-(3-ethyl-5-isopropyl-2,4-dioxoimidazolidin-1-yl)-5,6-dihydrobenzo[f]imidazo [1,2-d] [1,4]oxazepin-9-yl) pyrrolidine-2-carboxamide]"
–,–,–,0.142,–,5 to 20,"CC(C)C1C(=O)N(c2ccccc2)C(=O)N1c1cn2c(n1)-c1ccc(N3CCC[C@H]3C(N)=O)cc1OCC2 (stereo partly drawn) [Example 9, (2S)-1-(2-(5-isopropyl-2,4-dioxo-3-phenylimidazolidine-1-yl)-5,6-dihydrobenzo[f]imidazo[1,2-d] [1,4]oxazepin-9-yl)pyrrolidine-2-carboxamide]"
8.76,18600,1830,0.074,–,< 5,"CC(C)C1C(=O)N(C(C)C)C(=O)N1c1cn2c(n1)-c1ccc(N3CCC[C@H]3C(N)=O)cc1OCC2 (stereo partly drawn) [Example 23, (2S)-1-(2-(3,5-diisopropyl-2,4-dioxoimidazolidin-1-yl)-5,6-dihydrobenzo[f]imidazo[1,2-d] [1,4]oxazepin-9-yl)pyrrolidine-2-carboxamide]"
–,–,–,0.468,3.92,–,"CN1C(=O)CN(c2cn3c(n2)-c2ccc(N4CCC[C@H]4C(N)=O)cc2OCC3)C1=O [Example 28, (2S)-1-(2-(3-methyl-2,4-dioxoimidazolidin-1-yl)-5,6-dihydrobenzo[f]imidazo[1,2-d] [1,4]oxazepin-9-yl)pyrrolidine-2-carboxamide]"

# From patent US20230053342A1, “IMIDAZOLIDINONE COMPOUND, PREPARATION METHOD THEREFOR AND USE THEREOF” (BETTA PHARMACEUTICALS CO., LTD, priority 2019, published 2023)
